Test results as given in US9867811B2, “Method of treating atherosclerosis in high triglyceride subjects” (NOVARTIS AG, priority 2011, dated 2018).
Read-outs that look alike come from different tables or passages of the source.

How the values were obtained:
CETP [1] = experiment: Ex vivo CETP activity in plasma of hamsters (saline or Triton WR-1339 treated); details: hamster; for Inhibition of CETP activity, lower dose group, Triton WR-1339 group / Inhibition of CETP activity, lower dose group, saline group: oral gavage: Torcetrapib 5 mg/kg, Anacetrapib 1.5 mg/kg, Example 49 1.5 mg/kg, Example 8 0.75 mg/kg; for Inhibition of CETP activity, lower dose group, Triton WR-1339 group / Inhibition of CETP activity, higher dose group, Triton WR-1339 group: Triton WR-1339 100 mg/kg i.v.; for Inhibition of CETP activity, lower dose group, Triton WR-1339 group: not significant vs vehicle; for Inhibition of CETP activity, lower dose group, saline group / Inhibition of CETP activity, higher dose group, saline group: saline i.v.; for Inhibition of CETP activity, higher dose group, Triton WR-1339 group / Inhibition of CETP activity, higher dose group, saline group: oral gavage: Torcetrapib 10 mg/kg, Anacetrapib 3 mg/kg, Example 49 3 mg/kg, Example 8 1.5 mg/kg
Method: Nine- to ten-week-old, male golden Syrian hamsters were purchased from Japan SLC Inc. (Shizuoka, Japan). Animals underwent a more than 1-week acclimation period under the following conditions: 8:00/20:00 light/dark cycle, room temperature 23±2° C. […] During this time, animals received filtered (0.5 μm) water and a standard chow diet ad libitum.
Whole blood samples were collected using a heparin-washed syringe (Heparin sodium injection “Ajinomoto”; Ajinomoto, Tokyo, Japan) from the abdominal vein by venipuncture under isoflurane (Abbott Japan Co. Ltd.) inhalant anesthesia. After centrifugation at 15,000 rpm for 10 min at 4° C., heparinized plasma was prepared and stored at −80° C. until use.
CETP activity (RFU/min) was defined as the change in fluorescence intensity from 30 to 90 min.
The effect of an acute increase of plasma triglycerides in vivo (acute increase in triglyceride-rich particles) on the ability of Torcetrapib to alter plasma CETP activity, triglyceride and total cholesterol levels was investigated. Torcetrapib at doses of 3, 10 or 30 mg/kg or vehicle was administered once by gavage to hamsters fed a standard chow diet.
Compound or vehicle was administered once by gavage to hamsters fed a standard chow diet.

CETP [2] = target: T1, CETP (Homo sapiens, UniProt P11597); experiment: In vitro CETP activity assay in human plasma (serum pools of differing triglyceride level); assay type: biochemical; details: for IC50: human serum pool
T1 construct: Human serum samples were obtained from the Novartis Institutes for BioMedical Research donor program; tissue Novartis donor program; Bioreclamation (Westbury, N.Y.); Uniglobe (Reseda, Calif.); host or cells: pooled human donor serum
T1 sequence (P11597 18-493): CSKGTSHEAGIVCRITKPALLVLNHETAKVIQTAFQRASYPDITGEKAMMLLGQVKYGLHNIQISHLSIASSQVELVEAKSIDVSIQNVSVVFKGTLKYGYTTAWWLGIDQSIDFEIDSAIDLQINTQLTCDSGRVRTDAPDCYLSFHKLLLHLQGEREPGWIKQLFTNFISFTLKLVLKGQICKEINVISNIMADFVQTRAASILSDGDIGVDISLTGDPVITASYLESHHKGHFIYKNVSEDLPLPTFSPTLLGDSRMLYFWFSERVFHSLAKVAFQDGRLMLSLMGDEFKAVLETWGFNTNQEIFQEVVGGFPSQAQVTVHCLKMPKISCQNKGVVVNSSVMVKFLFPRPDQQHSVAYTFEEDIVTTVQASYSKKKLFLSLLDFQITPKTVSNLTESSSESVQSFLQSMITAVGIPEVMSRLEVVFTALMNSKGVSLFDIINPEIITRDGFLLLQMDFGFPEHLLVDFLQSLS
Method: Pro-apoA-1 containing microemulsion as a donor particle was prepared following previous report (J. Biol. Chem., 280:14918-22). Glyceryl trioleate (500 ug, Sigma-Aldrich, Cat. No. T7140), 3-sn-phosphatidylcholine (4680 ug, Sigma, Cat. No. P2772), and cholesteryl BODIPY FL 012 (2 mg, Invitrogen, CA, Cat. No. C-3927MP) were dissolved in 1.5 mL of chloroform. The solution was evaporated, and residual solvent was removed under vacuum for more than 1 hr at room temperature. The dried lipid mixture was dissolved in 7 ml of the assay buffer (50 mM Tris-HCl (pH 7.4) containing 150 mM NaCl and 2 mM EDTA) and sonicated in water bath for 1 hr. The solution was split into two tubes of 3.5 ml each. Each tube was sonicated at 50° C. with a microtip (MICROSON™ ULTRASONIC CELL DISRUPTOR, Misonix, Farmingdale, N.Y.) at output power 006 for 10 min (every other 25 seconds). The solution was cooled to 40° C. and 400 ug of pro-apoA-1 was added to each tube (total volume of 4 mL). Then, the solution was sonicated at output power 004 for 20 min (every other 30 seconds). Final Concentration: Glyceryl Tiroleate: 62.5 ug/ml, PC: 585 ug/ml, Bodipy CE: 250 ug/ml, Pro-apoA-1: 100 ug/ml. Centrifuge solution at 5200×g for 5 minutes and store the supernatant at 4′C.
Human serum samples were obtained from the Novartis Institutes for BioMedical Research donor program (normal triglyceride samples) or purchased from Bioreclamation (Westbury, N.Y.) or Uniglobe (Reseda, Calif.). General requirements for human serum donors included: male gender, 20-55 years of age, not currently on a lipid altering medication, non-fasting at time of blood collection, and a total cholesterol level between 200-300 mg/dL. Donor samples were selected primarily on the basis of serum triglyceride level, using the following classifications: normal triglycerides (<150 mg/dL); high triglycerides (300-500 mg/dL); and very high triglycerides (750-1200 mg/dL). A total of 4 individual serum samples from each classification were used in these experiments. For each of the 3 triglyceride classifications, two serum sample pools were prepared. The mean plasma triglyceride concentrations (mg/dL) for the pools were: Normal: 101.35; High: 347.5; Very high 1, 868.45; Very high 2, 1269.35.
Donor solution is prepared by a dilution of donor microemulsion with assay buffer (1.7 ul donor+8.3 ul Buffer). Human serum (25 μL), assay buffer (14 μL) and 50× test compound dissolved in 100% dimethylsulfoxide (1 μL) are added to each well of 384 well black, clear-bottom plate (NUNC. Thermo Fisher #242764). The reaction is started by the addition of donor solution (10 μL) into each well. Fluorescence intensities are measured every 10 min at 37° C. with excitation wave length of 485 nm and emission wavelength of 515 nm over an 80 minute period, using a SpectraMax M5 from Molecular Devices (Sunnyvale, Calif.). The CETP activity (RFU/min) is defined as the change of fluorescence intensity from 40 to 70 min. Percent CETP inhibition is calculated as follows: ((100% Act−Wellcmpnd)/100% Act))*100. IC50 values were calculated with GraphPad Prism 5 software.

| Structure (SMILES) | Inhibition of CETP activity, lower dose group, Triton WR-1339 group (CETP [1]) | Inhibition of CETP activity, lower dose group, saline group (CETP [1]) | Inhibition of CETP activity, higher dose group, Triton WR-1339 group (CETP [1]) | Inhibition of CETP activity, higher dose group, saline group (CETP [1]) | Retention of CETP inhibitory activity in plasma from hypertriglyceridemic human subjects (CETP [2]; in vitro, plasma from subjects with elevated triglycerides) | IC50 (CETP [2]; TG = 101.35 mg/dL (normal), read-out: CETP IC50 (nM) TG = 101.35 mg/dL) | IC50 (CETP [2]; TG = 374.5 mg/dL (high), read-out: CETP IC50 (nM) TG = 374.5 mg/dL) | IC50 (CETP [2]; TG = 1269.35 mg/dL (very high 2), read-out: CETP IC50 (nM) TG = 1269.35 mg/dL) |
| --- | --- | --- | --- | --- | --- | --- | --- | --- |
| COc1cc(F)c(C(C)C)cc1-c1ccc(C(F)(F)F)cc1CN1C(=O)O[C@H](c2cc(C(F)(F)F)cc(C(F)(F)F)c2)[C@@H]1C [Anacetrapib, reference compound] | 8% | 56% | 13% | 78% | does not retain its potency |  |  |  |
| CC[C@@H]1C[C@H](N(Cc2cc(C(F)(F)F)cc(C(F)(F)F)c2)c2ncc(-c3cnn(C)c3)cn2)C[C@H](CC)N1C(=O)O[C@H]1CC[C@H](C(=O)O)CC1 [Example 8] | 20% | 72% | 47% | 79% |  | 88.4 nM | 51.9 nM | 61.4 nM |
